Experimental data reported in patent publication US20120077753A1, “JNK INHIBITORS FOR USE IN TREATING SPINAL MUSCULAR ATROPHY” (priority 2009, published 2012).

Key:
JNK3 = JNK3 (Homo sapiens, UniProt P53779); settings: cited from earlier work
Primary neurons = assay: Degeneration of primary neurons transfected with siRNA-Smn or scrambled siRNA (tubulin staining, confocal microscopy); assay type: cell-based, mice
Description: (§1) Primary neurons transfected with scrambled siRNA (Control) and SMN specific siRNA (siRNA-Smn) were treated with DMSO or SP600125 after 36 h (post-transfection). Neurons were incubated for additional 60 h, fixed and stained with antibodies to Tubulin and phospho-JNK. Stained neurons were examined by confocal microscopy. Primary neurons transfected with scrambled siRNA (Control) and SMN specific siRNA (siRNA-Smn) were treated with DMSO or SP600125 after 36 h (post-transfection). Neurons were incubated for additional 60 h, fixed and stained with antibodies to Tubulin and phospho-c-Jun. Stained neurons were examined by confocal microscopy. To determine whether JNK activity is required for neurodegeneration, the effect of JNK inhibitor (SP600125) was examine on degeneration of neurons caused by SMN-deficiency. […] The knockdown of SMN neurons treated with solvent (DMSO) results in degeneration of neurons as expected. […] To determine whether the neuroprotection is a result of JNK inhibition achieved by treatment of SP600125, the phosphorylation of c-Jun was examined. […] To determine whether activation of JNK is normal in neurons treated with siRNA and JNK inhibitor, phospho-JNK was examined because JNK is activated by phosphorylation.

phosphorylation of c-Jun [1] = assay: Phospho-c-Jun staining in primary neurons lacking SMN; assay type: cell-based, mice; settings: neurons lacking SMN (siRNA-Smn), vs untreated with JNK inhibitor
Description: as §1, with “Primary” for “Primary neurons transfected with scrambled siRNA (Control) and SMN specific siRNA (siRNA-Smn) were treated with DMSO or SP600125 after 36 h (post-transfection). Neurons were incubated for additional 60 h, fixed and stained with antibodies to Tubulin and phospho-JNK. Stained neurons were examined by confocal microscopy. Primary”

phospho-JNK = assay: Phospho-JNK staining in primary neurons lacking SMN; assay type: cell-based, mice; settings: neurons treated with siRNA+SP600125
Description: as §1, with “phospho-JNK.” for “phospho-JNK. Stained neurons were examined by confocal microscopy. Primary neurons transfected with scrambled siRNA (Control) and SMN specific siRNA (siRNA-Smn) were treated with DMSO or SP600125 after 36 h (post-transfection). Neurons were incubated for additional 60 h, fixed and stained with antibodies to Tubulin and phospho-c-Jun.”

JNK-1, -2, and -3 = settings: ATP-competitive reversible inhibitor; cited from earlier work
[2] = test system: a range of kinases and enzymes; settings: cited from earlier work
phosphorylation of c-Jun [3] = settings: in cells; cited from earlier work
tumor necrosis factor-α = settings: animal studies; cited from earlier work
CD4+ CD8+ thymocytes = settings: animal studies; cited from earlier work

Chain of JNK3 (P53779 whole entry, species assumed): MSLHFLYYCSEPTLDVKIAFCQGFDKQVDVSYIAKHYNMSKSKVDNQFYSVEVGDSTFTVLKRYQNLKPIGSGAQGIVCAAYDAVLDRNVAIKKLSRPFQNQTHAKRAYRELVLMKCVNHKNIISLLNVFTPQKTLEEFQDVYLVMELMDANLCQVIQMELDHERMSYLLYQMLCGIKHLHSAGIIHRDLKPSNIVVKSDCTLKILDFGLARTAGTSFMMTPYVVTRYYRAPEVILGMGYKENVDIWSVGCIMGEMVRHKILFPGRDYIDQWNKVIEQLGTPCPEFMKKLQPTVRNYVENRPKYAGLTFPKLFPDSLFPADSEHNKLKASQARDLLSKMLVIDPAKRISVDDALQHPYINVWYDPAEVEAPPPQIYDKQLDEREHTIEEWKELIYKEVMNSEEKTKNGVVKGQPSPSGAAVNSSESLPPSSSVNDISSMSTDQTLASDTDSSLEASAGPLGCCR

## Cc1ccc(OCCCCCNc2cccc3c2C(=O)c2cccc4[nH]nc-3c24)cc1 [7-(5-(p-Tolyloxy)pentyl)amino-2H-anthra[1,9-cd]pyrazol-6-one]
JNK3
  JNK3 selectivity: selective inhibitors of JNK3

## O=C1c2ccccc2-c2n[nH]c3cccc1c23 [SP600125, Anthra[1,9-cd]pyrazol-6(2H)-on]
Primary neurons; control neurons, SP600125
  neuron degeneration in control experiments: did not cause neuron degeneration
Primary neurons; neurons transfected with siRNA-Smn, inhibitor added 36 h post-transfection, additional 60 h, vs solvent (DMSO)
  degeneration of neurons caused by SMN-deficiency: marked reduction in degeneration
Phosphorylation of c-Jun [1]
  phosphorylation of c-Jun: marked reduction in the phosphorylation of c-Jun
phospho-JNK
  phospho-JNK (JNK activation): presence of phospho-JNK
JNK-1, -2, and -3
  Ki: 190 nM
[2]
  selectivity vs. a range of kinases and enzymes tested: > 20 fold
Phosphorylation of c-Jun [3]
  inhibition of the phosphorylation of c-Jun: dose-dependent inhibition
Tumor necrosis factor-α
  bacterial lipopolysaccharide-induced expression of tumor necrosis factor-α: inhibited
CD4+ CD8+ thymocytes
  anti-CD3-induced apoptosis of CD4+ CD8+ thymocytes: prevented

## O=C1c2c(CCCCCNc3ccccc3)cccc2-c2n[nH]c3cccc1c23 [7-(5-7V-Phenylaminopentyl)-2H-anthra[1,9-cd]pyrazol-6-one]
JNK3
  JNK3 selectivity: selective inhibitors of JNK3

## O=C(NCCCCCCCNc1cccc2c1C(=O)c1cccc3[nH]nc-2c13)c1ccccc1 [7-(7-7V-Benzoylaminoheptyl)amino-2H-anthra[1,9-cd]pyrazol-6-one]
JNK3
  JNK3 selectivity: selective inhibitors of JNK3
